# Test results: ChEMBL document CHEMBL2429841, “Effect of incorporating a thiophene tail in the scaffold of acetazolamide on the inhibition of human carbonic anhydrase isoforms I, II, IX and XII” (Bioorg Med Chem Lett, 2013)
# Columns and labels:
# [1] = target: Carbonic anhydrase 12 (Homo sapiens, UniProt O43570)
# Description: Inhibition of human carbonic anhydrase-12 by stopped flow CO2 hydrase assay
# [2] = target: Carbonic anhydrase 9 (Homo sapiens, UniProt Q16790); assay: Inhibition of human carbonic anhydrase-9 by stopped flow CO2 hydrase assay
# Carbonic anhydrase 12, sequence (O43570 whole entry): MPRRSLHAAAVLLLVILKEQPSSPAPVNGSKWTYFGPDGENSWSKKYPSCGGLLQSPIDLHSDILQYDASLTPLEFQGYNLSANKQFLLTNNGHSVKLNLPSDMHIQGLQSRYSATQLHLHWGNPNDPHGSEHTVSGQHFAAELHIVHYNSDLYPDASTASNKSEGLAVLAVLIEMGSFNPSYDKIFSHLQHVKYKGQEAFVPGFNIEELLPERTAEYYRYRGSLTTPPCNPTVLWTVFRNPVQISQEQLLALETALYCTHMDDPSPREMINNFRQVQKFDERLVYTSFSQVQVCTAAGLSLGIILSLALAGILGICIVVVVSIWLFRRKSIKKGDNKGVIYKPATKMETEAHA
SMILES,Ki [1],Ki [2]
NS(=O)(=O)c1ccc(NC(=O)Cc2ccccc2)cc1,71 nM,84 nM
CCC[C@H](C(=O)Nc1ccc(S(N)(=O)=O)cc1)C(C)(C)C,78 nM,96 nM
NS(=O)(=O)c1ccc(NC(=O)Cc2cccs2)cc1,21 nM,19 nM
